Measurements: US20160221965A1, “DISUBSTITUTED TRIFLUOROMETHYL PYRIMIDINONES AND THEIR USE” (BAYER PHARMA AKTIENGESELLSCHAFT, priority 2013, published 2016)

Tests used:
human CCR2 = biological target: T1, human CCR2 (Homo sapiens, UniProt P41597); assay: Functional Ca2+ release test (B-1); format: cell-based; conditions: Chem-1 cell line transfected with human CCR2, inhibition of MCP-1 effect, MCP-1 at EC50 (about 5 nM), Fluo-4
T1 construct: host or cells: Chem-1 cell line
T1 sequence (P41597 1-360 isoform P41597-2): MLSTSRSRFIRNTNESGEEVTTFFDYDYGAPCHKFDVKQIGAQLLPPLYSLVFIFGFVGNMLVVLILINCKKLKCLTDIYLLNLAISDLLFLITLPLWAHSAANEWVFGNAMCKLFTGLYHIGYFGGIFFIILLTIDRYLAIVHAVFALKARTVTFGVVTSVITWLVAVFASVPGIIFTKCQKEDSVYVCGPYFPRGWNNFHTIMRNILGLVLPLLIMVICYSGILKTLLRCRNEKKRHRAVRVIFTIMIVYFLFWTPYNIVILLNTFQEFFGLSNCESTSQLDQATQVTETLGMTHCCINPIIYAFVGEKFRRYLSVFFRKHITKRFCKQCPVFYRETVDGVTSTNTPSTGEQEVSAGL
Procedure: The antagonistic action of test substances on CCR2 was determined in a functional Ca^2+ release test. Binding of CCL2/MCP-1 to CCR2 leads to a change in the conformation of the receptor resulting in Gi/Gq protein activation and intracellular signal cascade. This involves, inter alia, an intracellular Ca^2+ release. The test cell used was a Chem-1 cell line transfected with human CCR2 (ChemiSCREEN™ CCR2B Calcium-Optimized FLIPR Cell Line, Merck Millipore).
(§1) The test substances were dissolved in dimethyl sulphoxide (DMSO) at a concentration of 10 mM and serially diluted with DMSO in steps of 1:3.16 for a 10-point dose/activity analysis. According to the desired test concentrations, the substances were pre-diluted in Tyrode with 2 mM CaCl2 and 0.05% BSA.
The cells, cultivated in DMEM high glucose [supplemented with 10% FCS, 1 mM pyruvate, 15 mM HEPES, 500 μg/ml geniticin and non-essential amino acids (NEAA)], were sown at 5000 cells/25 μl in 384 well, μCLEAR/black cell culture plates from Greiner (#781092) and incubated at 37° C. for 24 h. The sowing medium consisted of DMEM high glucose [supplemented with 5% FCS, 1 mM pyruvate, 15 mM HEPES, 50 U/ml penicillin, 50 μg/ml streptomycin and non-essential amino acids (NEAA)]. The medium was then removed and the cells were charged for 60 min at 37° C. with Fluo-4 dye [25 μl Tyrode with 3 μM Fluo-4 AM (1 mM DMSO stock solution), 0.4 mg/ml Brilliant Black, 2.5 mM probenicid, 0.03% Pluronic F-127]. The cells were pre-incubated for 10 min with 10 μl of the test substances diluted in buffer, and 20 μl of agonist solution (MCP-1 in Tyrode with 0.05% BSA) were then added. MCP-1 was employed at the concentration which corresponds to the EC50 which had been determined in a preliminary test (usually about 5 nM). Ca^2+ release was monitored over a period of 120 s in 1 s increments in a proprietary fluorescence imaging reader. The molar concentration of the test substance which caused 50% inhibition of the MCP-1 effect (IC50) was determined using a 4-parameter logistic function (Hill function).

murine CCR2 = biological target: T2, murine CCR2 (Mus musculus, UniProt P51683); assay: Functional β-arrestin recruiting test with human MCP-1 (B-2a); format: cell-based; conditions: U2OS β-arrestin cell line transfected with murine CCR2; agonist human MCP-1 at EC50 (about 3 nM)
T2 construct: host or cells: U2OS β-arrestin cell line
T2 sequence (P51683 whole entry): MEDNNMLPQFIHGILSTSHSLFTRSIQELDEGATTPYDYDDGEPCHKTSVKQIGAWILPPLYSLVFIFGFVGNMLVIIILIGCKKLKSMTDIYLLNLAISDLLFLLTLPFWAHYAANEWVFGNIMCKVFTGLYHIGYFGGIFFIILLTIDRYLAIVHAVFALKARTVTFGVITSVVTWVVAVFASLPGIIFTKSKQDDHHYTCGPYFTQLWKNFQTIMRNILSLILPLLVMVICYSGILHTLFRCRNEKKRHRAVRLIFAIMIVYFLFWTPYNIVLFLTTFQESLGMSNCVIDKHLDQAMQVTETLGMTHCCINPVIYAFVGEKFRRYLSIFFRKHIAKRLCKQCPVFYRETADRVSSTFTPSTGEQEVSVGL
Procedure: The antagonistic action of test substances on CCR2 was determined in a β-arrestin test. The PathHunter β-arrestin GPCR test system (DiscoveRx Corporation, Ltd.) is a cell-based functional method for detecting binding of β-arrestin to an activated receptor. The molecular basis is a β-galactosidase complementation measured by the enzymatic conversion of a chemiluminescent substrate. The test cell used was a U2OS β-arrestin cell line transfected with murine CCR2 (93-0543C3, DiscoveRx Corporation, Ltd.).
as §1
The cells, cultivated in MEM Eagle (supplemented with 10% FCS, 50 U/ml of penicillin, 50 μg/ml of streptomycin, 250 μg/ml of hygromycin and 500 μg/ml of geniticin), were sown at 2000 cells/25 μl in 384 well, μCLEAR/black cell culture plates from Greiner (#781092) and incubated at 37° C. for 24 h. The sowing medium consisted of Opti-MEM (supplemented with 1% FCS, 50 U/ml of penicillin and 50 μg/ml of streptomycin). The cells were pre-incubated for 10 min with 10 μl of the test substances diluted in buffer, and 10 μl of agonist solution [human MCP-1 (PeproTech, #300-04) in Tyrode with 0.05% BSA] were then added. The human MCP-1 was employed at the concentration which corresponds to the EC50 which had been determined in a preliminary test (usually about 3 nM). After 90 min of incubation at 37° C., the solution was removed, and recruitment of β-arrestin to CCR2 was detected with the aid of the PathHunter detection reagent (93-001, DiscoveRx Corporation, Ltd.) according to the instructions of the manufacturer. Luminescence was measured after an incubation time of 60 min using a proprietary luminescence imaging measuring instrument. The molar concentration of the test substance which caused 50% inhibition of the MCP-1 effect (IC50) was determined using a 4-parameter logistic function (Hill function).

SMILES | IC50 (human CCR2) [nM] | IC50 (murine CCR2) [nM]
CCc1nc(C(F)(F)F)c(Cc2ccc(Cl)c(F)c2)c(=O)[nH]1 [Example 32, 5-(4-chloro-3-fluorobenzyl)-2-ethyl-6-(trifluoromethyl)pyrimidin-4(3H)-one] | 220 | 540
O=c1[nH]c(CCO)nc(C(F)(F)F)c1Oc1ccc(Cl)c(Cl)c1 [Example 68] | 49 | 370
NC(=O)Cc1nc(C(F)(F)F)c(Oc2ccc(F)c(F)c2)c(=O)[nH]1 [Example 37] | 480 | 3800
O=c1[nH]c(C2CC2)nc(C(F)(F)F)c1Cc1ccc(Cl)c(Cl)c1 [Example 30, 2-cyclopropyl-5-(3,4-dichlorobenzyl)-6-(trifluoromethyl)pyrimidin-4(3H)-one] | 100 | 550
Cc1nc(C(F)(F)F)c(Cc2ccc(Cl)c(Cl)c2)c(=O)[nH]1 [Example 18, 5-(3,4-Dichlorobenzyl)-2-methyl-6-(trifluoromethyl)pyrimidin-4(3H)-one] | 33 | 370
O=c1[nH]c(C2CC2)nc(C(F)(F)F)c1Cc1ccc(F)c(Cl)c1 [Example 34, 5-(3-chloro-4-fluorobenzyl)-2-cyclopropyl-6-(trifluoromethyl)pyrimidin-4(3H)-one] | 150 | 520
NC(=O)Cc1nc(C(F)(F)F)c(Cc2cccc(C(F)(F)F)c2)c(=O)[nH]1 [Example 41] | 270 | 2000
NC(=O)Cc1nc(C(F)(F)F)c(Oc2ccc(Cl)c(F)c2)c(=O)[nH]1 [Example 39] | 160 | 1800
NC(=O)Cc1nc(C(F)(F)F)c(Cc2ccc(Cl)c(F)c2)c(=O)[nH]1 [Example 40] | 150 | 970
Nc1nc(C(F)(F)F)c(Oc2ccc(F)c(F)c2)c(=O)[nH]1 [Example 10, 2-amino-5-(3,4-difluorophenoxy)-6-(trifluoromethyl)pyrimidin-4(3H)-one] | 43 | 1300
Cc1ccc(Cc2c(C(F)(F)F)nc(C3CC3)[nH]c2=O)cc1Cl [Example 29, 5-(3-chloro-4-methylbenzyl)-2-cyclopropyl-6-(trifluoromethyl)pyrimidin-4(3H)-one] | 91 | 800
Nc1nc(C(F)(F)F)c(Oc2cncc(Cl)c2)c(=O)[nH]1 [Example 12, 2-amino-5-[(5-chloropyridin-3-yl)oxy]-6-(trifluoromethyl)pyrimidin-4(3H)-one] | 54 | 1000
NC(=O)Cc1nc(C(F)(F)F)c(Cc2cc(F)cc(C(F)(F)F)c2)c(=O)[nH]1 [Example 42] | 400 | 2800
Cc1ccc(Cc2c(C(F)(F)F)nc(CC(N)=O)[nH]c2=O)cc1Cl [Example 47] | 49 | 830
Nc1nc(C(F)(F)F)c(Oc2cccc(Cl)c2)c(=O)[nH]1 [Example 9, 2-amino-5-(3-chlorophenoxy)-6-(trifluoromethyl)pyrimidin-4(3H)-one] | 38 | 450
NC(=O)Cc1nc(C(F)(F)F)c(Cc2ccc(Cl)c(Cl)c2)c(=O)[nH]1 [Example 50] | 65 | 460
O=c1[nH]c(C2CC2)nc(C(F)(F)F)c1Cc1ccc(Cl)c(C(F)(F)F)c1 [Example 27, 5-[4-chloro-3-(trifluoromethyl)benzyl]-2-cyclopropyl-6-(trifluoromethyl)pyrimidin-4(3H)-one] | 63 | 360
CN(C)c1nc(C(F)(F)F)c(Oc2ccc(Cl)c(Cl)c2)c(=O)[nH]1 [Example 67] | 55 | 1000
NC(=O)Cc1nc(C(F)(F)F)c(Cc2cccc(Cl)c2)c(=O)[nH]1 [Example 43] | 270 | 880
O=c1[nH]c(C2CC2)nc(C(F)(F)F)c1Cc1ccc(C(F)(F)F)c(Cl)c1 [Example 24, 5-[3-chloro-4-(trifluoromethyl)benzyl]-2-cyclopropyl-6-(trifluoromethyl)pyrimidin-4(3H)-one] | 270 | 1900
O=c1[nH]c(CO)nc(C(F)(F)F)c1Oc1ccc(F)c(F)c1 [Example 53] | 70 | 620
Nc1nc(C(F)(F)F)c(Cc2ccc(Cl)c(C(F)(F)F)c2)c(=O)[nH]1 [Example 8, 2-amino-5-[4-chloro-3-(trifluoromethyl)benzyl]-6-(trifluoromethyl)pyrimidin-4(3H)-one] | 33 | 160

Now those with a lower IC50 (human CCR2), led by results:

IC50 (human CCR2) [nM] | IC50 (murine CCR2) [nM] | SMILES
31 | 640 | Nc1nc(C(F)(F)F)c(Sc2ccc(Cl)cc2)c(=O)[nH]1 [Example 16, 2-amino-5-[(4-chlorophenyl)sulphanyl]-6-(trifluoromethyl)pyrimidin-4(3H)-one]
15 | 74 | CCc1nc(C(F)(F)F)c(Oc2ccc(Cl)c(Cl)c2)c(=O)[nH]1 [Example 33, 5-(3,4-dichlorophenoxy)-2-ethyl-6-(trifluoromethyl)pyrimidin-4(3H)-one]
14 | 230 | O=c1[nH]c(CO)nc(C(F)(F)F)c1Cc1ccc(Cl)c(Cl)c1 [Example 51, 5-(3,4-Dichlorobenzyl)-2-(hydroxymethyl)-6-(trifluoromethyl)pyrimidin-4(3H)-one]
10 | 140 | O=c1[nH]c(CO)nc(C(F)(F)F)c1Oc1cccc(Cl)c1 [Example 54]
31 | 240 | CCc1nc(C(F)(F)F)c(Cc2ccc(Cl)c(C(F)(F)F)c2)c(=O)[nH]1 [Example 26, 5-[4-chloro-3-(trifluoromethyl)benzyl]-2-ethyl-6-(trifluoromethyl)pyrimidin-4(3H)-one]
6.2 | 120 | O=c1[nH]c(CO)nc(C(F)(F)F)c1Oc1ccc(Cl)c(F)c1 [Example 55]
5.4 | 150 | Nc1nc(C(F)(F)F)c(Oc2ccc(F)c(C(F)(F)F)c2)c(=O)[nH]1 [Example 6, 2-amino-5-[4-fluoro-3-(trifluoromethyl)phenoxy]-6-(trifluoromethyl)pyrimidin-4(3H)-one]
31 | 300 | NC(=O)Cc1nc(C(F)(F)F)c(Cc2ccc(Cl)c(C(F)(F)F)c2)c(=O)[nH]1 [Example 48]
20 | 440 | NC(=O)Cc1nc(C(F)(F)F)c(Oc2ccc(Cl)c(Cl)c2)c(=O)[nH]1 [Example 46]
2.3 | 130 | Nc1nc(C(F)(F)F)c(Sc2ccc(Cl)c(Cl)c2)c(=O)[nH]1 [Example 15, 2-Amino-5-[(3,4-dichlorophenyl)sulphanyl]-6-(trifluoromethyl)pyrimidin-4(3H)-one]
